Patent US9096832B2, “Differentiation of human embryonic stem cells” (LifeScan, Inc., priority 2007, dated 2015)

Test system: H9 embryonic stem cells
Assay: Microarray analysis of definitive endoderm stage cells on […] or MEFs +/- Wnt-3a (Table VI)
Assay type: cell-based, human
Details: low serum, on MEFS

Substance: Activin A: activin A (a member of the TGFβ superfamily), R&D Systems; 'w/o wnt' in Table VII = 100 ng/ml Activin A without Wnt3a
- Intensity (log): Homo sapiens haptoglobin-related protein (HPR), mRNA: −1.196
- Intensity (log): Homo sapiens homeobox protein goosecoid mRNA, complete cds: 1.894
- Intensity (log): Homo sapiens hypothetical protein FLJ10718 (FLJ10718), mRNA: 5.552
- Intensity (log): Homo sapiens hypothetical protein FLJ10970 (FLJ10970), mRNA: 3.02
- Intensity (log): Homo sapiens hypothetical protein FLJ11316 (FLJ11316), mRNA: 0.7553
- Intensity (log): Homo sapiens hypothetical protein FLJ22252 similar to SRY-box containing gene 17 (FLJ22252), mRNA: 4.5979
- Intensity (log): Homo sapiens lumican (LUM), mRNA: 0.9488
- Intensity (log): Homo sapiens mRNA for GATA-6, complete cds: 5.343
- Intensity (log): Homo sapiens mRNA for KIAA1409 protein, partial cds: −1.032
- Intensity (log): Homo sapiens mRNA; cDNA DKFZp434D0818 (from clone DKFZp434D0818): −0.3056
- Intensity (log): Homo sapiens mRNA; cDNA DKFZp586J0624 (from clone DKFZp586J0624); complete cds: 3.699
- Intensity (log): Homo sapiens presenilin stabilization factor b (PSF) mRNA, complete cds; alternatively spliced: 0.5675
- Intensity (log): Homo sapiens reserved (KCNK12), mRNA: 3.78
- Intensity (log): Homo sapiens retinoid X receptor, gamma (RXRG), mRNA: −0.3204
- Intensity (log): Homo sapiens sema domain, immunoglobulin domain (Ig), short basic domain, secreted, (semaphorin) 3E (SEMA3E), mRNA: 1.276
- Intensity (log): Homo sapiens sema domain, seven thrombospondin repeats (type 1 and type 1-like), transmembrane domain (TM) and short cytoplasmic domain, (semaphorin) 5A (SEMA5A), mRNA: 1.487
- Intensity (log): Homo sapiens solute carrier family 21 (prostaglandin transporter), member 2 (SLC21A2), mRNA: 2.433
- Intensity (log): Homo sapiens type VI collagen alpha 2 chain precursor (COL6A2) mRNA, complete cds, alternatively spliced: 2.845
- Intensity (log): Homo sapiens, alpha-1 (VI) collagen: −2.269
- Intensity (log): Homo sapiens, clone MGC: 4655, mRNA, complete cds: 2.476
- Intensity (log): Human (clone 8B1) Br-cadherin mRNA, complete cds: −1.026
- Intensity (log): Human (clone HSY3RR) neuropeptide Y receptor (NPYR) mRNA, complete cds: 5.48
- Intensity (log): Human DNA sequence from clone RP1-181C24 on chromosome 6p11.1-12.2. Contains the 3 end of the BMP5 gene for bone morphogenetic protein 5, ESTs, STSs and GSSs: −0.3731
- Intensity (log): Human Fritz mRNA, complete cds: 3.915
- Intensity (log): Human dipeptidyl peptidase IV (CD26) mRNA, complete cds: −1.256
- Intensity (log): Human glycophorin HeP2 mRNA, partial cds: 0.2335
- Intensity (log): Human link protein mRNA, complete cds: −1.263
- Intensity (log): Human mRNA for alpha-1 type II collagen: −0.3802
- Intensity (log): Human mRNA for apolipoprotein AI (apo AI): 2.497
- Intensity (log): Human prostatic secretory protein 57 mRNA, complete cds: −0.4077
- Intensity (log): KIAA1462 protein: 0.4371
- Intensity (log): MCP-1 = monocyte chemotactic protein (human, aortic endothelial cells, mRNA, 661 nt): 2.955
- Intensity (log): Rho GDP dissociation inhibitor (GDI) alpha: −2.582
- Intensity (log): WAS protein family, member 2: −1.06
- Intensity (log): collagen, type IX, alpha 2: 2.935
- Intensity (log): collagen, type VI, alpha 1: 0.6042
- Intensity (log): hepatocyte nuclear factor 4, alpha: 0.4452
- Intensity (log): homeo box HB9: 1.631
- Intensity (log): hypothetical protein FLJ21032: 2.618
- Intensity (log): hypothetical protein FLJ23091: 3.78
- Intensity (log): microfibrillar-associated protein 4: −0.6009
- Intensity (log): myristoylated alanine-rich protein kinase C substrate (MARCKS, 80K-L): 0.3357
- Intensity (log): neuropilin 1: −1.9667
- Intensity (log): noggin: 1.33
- Intensity (log): splicing factor, arginine serine-rich 5: 4.272
- Intensity (log): stanniocalcin 1: 6.143
- Intensity (log): ESTs (r13): −4.27
- Intensity (log): ESTs (r16): −2.6475
- Intensity (log): solute carrier family 16 (monocarboxylic acid transporters), member 3 (r20): 0.279
- Intensity (log): Homo sapiens solute carrier family 16 (monocarboxylic acid transporters), member 3 (SLC16A3), mRNA (r30): 1.724
- Intensity (log): ESTs (r49): 0.967
- Intensity (log): glycophorin B (includes Ss blood group) (r50): −0.1297
- Intensity (log): ESTs (r62): −0.2374
- Intensity (log): Homo sapiens HNF-3beta mRNA for hepatocyte nuclear factor-3 beta, complete cds (r66): 2.825
- Intensity (log): ESTs (r81): −2.321
- Intensity (log): ESTs (r92): 0.926
- Intensity (log): ESTs (r98): −2.206
- Intensity (log): ESTs (r108): −1.825
- Intensity (log): Homo sapiens phorbolin-like protein MDS019 (MDS019), mRNA (r121): 2.408
- Intensity (log): ESTs (r129): 0.4204
- Intensity (log): ESTs (r136): 3.522
- Intensity (log): ESTs (r137): 0.761
- Intensity (log): ESTs (r142): 1.433
- Intensity (log): ESTs (r145): 1.0501
- Intensity (log): Cluster Incl. AB028021: Homo sapiens HNF-3beta mRNA for hepatocyte nuclear factor-3 beta, complete cds (r165): 4.117
- Intensity (log): hypothetical protein FLJ23403 (r205): −2.313
- Intensity (log): matrix metalloproteinase 14 (membrane-inserted) (r215): −0.5185
- Intensity (log): Homo sapiens glycophorin B (includes Ss blood group) (GYPB), mRNA (r218): 0.1803
- Intensity (log): ESTs (r234): 3.913
- Intensity (log): ESTs (r240): 3.125
- Intensity (log): ESTs (r241): −0.5703
- Intensity (log): KIAA0878 protein (r250): 4.789
- Intensity (log): ESTs (r260): 4.814
- Intensity (log): Homo sapiens matrix metalloproteinase 14 (membrane-inserted) (MMP14), mRNA (r270): −0.09689
- Intensity (log): ESTs (r278): 0.6202
- Intensity (log): ESTs (r290): 2.657
- Intensity (log): ESTs (r301): 3.372
- Intensity (log): ESTs (r314): −0.2982
- Intensity (log): Homo sapiens hypothetical protein FLJ23403 (FLJ23403), mRNA (r315): −1.004
- Intensity (log): ESTs (r319): −0.1895
- Intensity (log): Homo sapiens KIAA0878 protein (KIAA0878), mRNA (r332): 5.654
- Intensity (log): phorbolin-like protein MDS019 (r340): 0.5035
- Intensity (log): ESTs (r347): 3.749
- Intensity (log): ESTs (r376): 0.8249
- Intensity (log): ESTs (r377): −1.364
